In EP1561465A2, “Methods of use of fluoroquinolone compounds against bacteria” (LG Life Sciences, Ltd., priority 1999, dated 2001):
In brackets after ≈: the same amount, converted by molar mass.

What was measured:
Experiment in all cases: MIC by agar dilution (NCCLS), 322 nosocomial Gram negative isolates, Athens 1998
Assay type in all cases: cell-based
[1] = system: Proteus mirabilis; details: n = 57 isolates; for MIC50 / MIC90: Proteus mirabilis
[2] = system: Klebsiella pneumoniae; details: n = 56 isolates; for MIC50 / MIC90: Klebsiella pneumoniae
[3] = system: Acinetobacter spp.; details: n = 38 strains; for MIC50 / MIC90: Acinetobacter
[4] = system: Pseudomonas aeruginosa; details: n = 57 isolates
[5] = system: Escherichia coli; details: Escherichia coli; n = 57 isolates
[6] = system: Enterobacter spp.; details: n = 57 isolates; for MIC50 / MIC90: Enterobacter; for MIC50: read-out: MIC50; for MIC90: read-out: MIC90

Row | SMILES | MIC50 [1] [µg/mL] | MIC90 [1] [µg/mL] | MIC50 [2] [µg/mL] | MIC90 [2] [µg/mL] | MIC50 [3] [µg/mL] | MIC90 [3] [µg/mL] | MIC50 [4] [µg/mL] | MIC90 [4] [µg/mL] | MIC50 [5] [µg/mL] | MIC90 [5] [µg/mL] | MIC Range [1] [µg/mL] | MIC Range [2] [µg/mL] | MIC Range [3] [µg/mL] | MIC50 [6] [µg/mL] | MIC90 [6] [µg/mL] | MIC Range [6] [µg/mL]
1 | CC(C)(O/N=C(\C(=O)N[C@@H]1C(=O)N2C(C(=O)[O-])=C(C[n+]3ccccc3)CS[C@H]12)c1csc(N)n1)C(=O)O [Ceftazidime] | 0.125 (≈ 0.229 µM) | 8 (≈ 14.6 µM) | 0.25 (≈ 0.457 µM) | > 64 | > 64 | > 64 | 2 (≈ 3.66 µM) | > 64 | 0.125 (≈ 0.229 µM) | 0.25 (≈ 0.457 µM) |  |  |  |  |  | 
2 | C[C@@H](O)[C@H]1C(=O)N2C(C(=O)O)=C(S[C@@H]3CN[C@H](C(=O)N(C)C)C3)[C@H](C)[C@H]12 [Meropenem] | 0.03 (≈ 0.0782 µM) | 0.25 (≈ 0.652 µM) | 0.03 (≈ 0.0782 µM) | 0.06 (≈ 0.156 µM) | 2 (≈ 5.22 µM) | 8 (≈ 20.9 µM) | 1 (≈ 2.61 µM) | 16 (≈ 41.7 µM) | ≤ 0.03 | ≤ 0.03 | ≤0.03 to 4 | ≤0.03 to 2 | 0.06 to 16 | 0.06 (≈ 0.156 µM) | 4 (≈ 10.4 µM) | ≤0.03 to 16
3 | CCN1CCN(C(=O)N[C@@H](C(=O)N[C@@H]2C(=O)N3[C@@H]2SC(C)(C)[C@@H]3C(=O)O)c2ccccc2)C(=O)C1=O [Piperacillin] | 1 (≈ 1.93 µM) | > 64 | 32 (≈ 61.8 µM) | > 64 | > 64 | > 64 | 8 (≈ 15.5 µM) | > 64 | 4 (≈ 7.73 µM) | 64 (≈ 124 µM) |  |  |  | 16 (≈ 30.9 µM) | > 64 | 
